Like-named read-outs stand apart in the source and are kept apart here.
What was measured:
[1] = system: normal human endocervical epithelial cells; test: MTT cell viability assay, endocervical epithelial cells; type: cell-based; details: read-out: IC50[MTT] endocervical epithelial cells
Experimental: (§1) Briefly, exponential growing vaginal, ectocervical, and endocervical epithelial cells were seeded into 96-well plates at a density of 2×10^4 cells/well and incubated for 24 h at 37° C. prior to drug exposure. On the day of treatment, culture medium was aspirated from the wells and replaced with fresh medium containing serial two-fold drug concentrations ranging from 7.8 μM to 1000 μM. N-9 (IGEPAL CO-630; Rhone Poulenc, Cranbury, N.J.) was diluted in PBS. Triplicate wells were used for each treatment. Culture plates were then incubated for 3 hours before adding 10 μl of MTT solution (5 mg/ml in PBS) to each well. Wells containing only medium and MTT were used as control for each plate. The tetrazolium/formazan reaction was allowed to proceed for 4 hours at 37° C., and then 100 μl of the solubilization buffer (10% sodium dodecyl sulfate in 0.1% HCl) was added to all wells and mixed thoroughly to dissolve the dark blue formazan crystals. After an overnight incubation at 37° C., the OD at 540 nm were measured using a 96-well multiscanner autoreader with the solubilization buffer serving as blank. To translate the OD540 values into the number of live cells in each well, the OD540 values were compared to those of standard OD540-versus-cell number curves generated for each cell line. The percent survival was calculated using the formula: % survival=Live cell number [test]/Live cell number [control]×100. The results were expressed as mean IC50 values for three independent experiments. The IC50 [MTT] was defined as the concentration required for 50% reduction in cell survival.
(§2) Cell viability was measured by the MTT assay.

[2] = system: normal human vaginal epithelial cells; test: MTT cell viability assay, vaginal epithelial cells; type: cell-based; details: read-out: IC50[MTT] vaginal epithelial cells
Experimental: as §1, §2

HIV-1 strain HTLVIIIB = test: p24 antigen production in HIV-1 infected PBMCs; type: cell-based; details: Human immunodeficiency virus 1, PBMC
Experimental: The HTLVIIIB strain of HIV-1 was propagated in CCRF-CEM cells and the virus stocks obtained from cell-free supernatants of infected cells were titered using MT-2 cells. Cell-free supernatants were harvested and frozen in 1 ml aliquots at −70° C.
Stock solutions (10 mM) of thiourea compounds were prepared in dimethylsulfoxide (DMSO). Cells were cultured for 7 days in 96-well microtiter plates (100 μl/well; 2×10^6 cells/ml, triplicate wells) in the presence and absence of various concentrations (0.001 μM to 100 μM) of the thioureas. Cells from non-infected controls were handled in the same way except the virus was omitted from the preparation. Aliquots of culture supernatants were removed from the wells on the 7th day after infection for p24 antigen as previously described. The p24 enzyme immunoassay was the unmodified kinetic assay available commercially (Coulter Corporation/Immunotech, Inc., Westbrook, Me.). The assay uses a murine monoclonal antibody (mAb) to the HIV core protein coated onto microwell strips to which the antigen present in the test culture supernatant sample binds. The plates were read on a ELISA reader (Molecular Devices, Sunnyvale, Calif.) at 650 nm and p24 levels, expressed as ng/ml, were calculated against known standards supplied by Coulter/Imrunotech, Inc. Percent viral inhibition was calculated by comparing the p24 values for the test substance-treated infected cells with the p24 values for untreated infected cells (i.e., virus controls). […]

[3] = partition coefficient n-octanol/water (Pa); type: physicochemical; details: UV absorption
Experimental: Partition of the test compounds between n-octanol and water as a measure of their lipophilicity was determined by taking the UV absorption of each compound in n-octanol, water-saturated n- octanol (1:1), and n-octanol-saturated water (1:1). The UV absorption maxima were determined by selecting a wavelength with the maximum absorption peak in the water-saturated octanol layer and the corresponding peak in the octanol-saturated water. Three absorption spectra were obtained for each compound. The partion coefficient (Pa) was calculated as the ratio of the compound concentration present in the lipid phase to the compound concentration present in the aqueous phase.

[4] = biological target: T1, purified recombinant HIV-1 RT (Human immunodeficiency virus type 1 group M subtype B, UniProt P03366); test: cell-free Quan-T-RT RT inhibition assay (scintillation proximity); type: biochemical; details: IC50 [rRT], purified recombinant HIV-1 RT, cell-free
T1 construct: purified recombinant HIV-1 RT
Experimental: Each of the thirty one thiourea compounds was tested for RT inhibitory activity against purified recombinant HIV-1 RT using the cell-free Quan-T-RT system (Amersham Corp., Arlington Heights, Ill.), which utilizes the scintillation proximity assay principle.

human sperm = test: sperm immobilizing activity (SIA) by CASA; type: cell-based; details: for effective 100% inhibitory concentration (EC100), sperm motility: FIG. 1, CASA; for EC50: read-out: EC50 [SIA]
Experimental: To evaluate the effect of each of the 31 thiourea compounds on human sperm motility and kinematics, highly motile fractions of sperm were prepared from donor semen (n=8) by discontinuous (90-45%) gradient centrifugation using Enhance Plus medium (Conception Technologies, San Diego, Calif.) and the “swim-up” method. The swim-up method was used after density gradient centrifugation, washing, and resuspension of sperm in BWW-3% BSA. Pooled swim-up fraction was washed once prior to spermicidal assay.
All donor semen specimens were obtained after informed consent and in compliance with the guidelines of the Parker Hughes Institute Institutional Review Board. […] The stock solutions of thioureas were prepared in DMSO (100 mM) and diluted in assay medium to yield the desired concentrations (up to 1000 μM). Corresponding volume of DMSO (either 0.5% or 1%) was added to control tubes. After 3 hours of incubation at 37° C., the percentage of motile sperm was evaluated by CASA [53, 62-64]. The percent motilities were compared with sham-treated control suspensions of motile sperm.
For CASA, 5-μl of each sperm suspension was loaded into a 20-μm Microcell slide (Conception Technologies) in a counting chamber at 37° C. At least 5-8 fields per slide were scanned for analysis using a Hamilton Thome Integrated Visual Optical System (IVOS), version 10 instrument (Hamilton Thome Research Inc., Danvers, Mass.). Each field was recorded for 30 seconds. The computer calibrations were set at 30 frames at a frame rate of 30/second.
The sperm kinematics parameters that were determined included numbers of motile (MOT) and progressively (PRG) motile sperm; curvilinear velocity (VCL; a measure of the total distance traveled by a given sperm during the acquisition divided by the time elapsed); average path velocity (VAP; the spatially averaged path that eliminates the wobble of the sperm head), straight line velocity (VSL; the straight-line distance from beginning to end of track divided by time taken), beat cross frequency (BCF; frequency of sperm head crossing sperm average path), the amplitude of lateral head displacement (ALH; the mean width of sperm head oscillation), and the derivatives, straightness (STR=VSL/VAP×100) and linearity (LIN=VSL/VCL×100; departure of sperm track from a straight line). Data from each individual cell track were recorded and analyzed. At least 200 motile sperm were analyzed for each aliquot sampled.

[5] = system: normal human ectocervical epithelial cells; test: MTT cell viability assay, ectocervical epithelial cells; type: cell-based; details: read-out: IC50[MTT] ectocervical epithelial cells
Experimental: as §1, §2

[6] = motile human sperm, 3 hours at 37° C., CASA
[7] = HIV-1 HTLVIIIB infected human PBMC, p24 antigen on 7th day, read-out: IC50 [p24]
[8] = HIV-1 HTLVIIIB infected human PBMC, values in nM, read-out: IC50[p24]

S=C(NCCC1=CCCCC1)Nc1ccc(Br)cn1 [HI 346]
IC50 ([1]; 3 h exposure, MTT): 580 ± 48 µM | IC50 ([2]; 3 h exposure, MTT): > 1000 µM | IC50 (HIV-1 strain HTLVIIIB; read-out: IC50 [p24]): 3 nM | IC50 (HIV-1 strain HTLVIIIB; read-out: IC50[p24]): 3 nM | Pa, Partition coefficient [3]: 8.6 | IC50 [4]: 0.6 µM | effective 100% inhibitory concentration (EC100), sperm motility (human sperm): 0.25 mM | EC50 (human sperm; [6]): 42 µM | IC50 ([5]; 3 h exposure, MTT): 765 ± 400 µM

CCCCCCCCCc1ccc(OCCOCCOCCOCCOCCOCCOCCOCCOCCO)cc1 [Compound N-9, nonoxynol-9, reference compound]
IC50 ([1]; 3 h): 32 µM | IC50 ([2]; 3 h): 64 µM | EC50 (human sperm; Homo sapiens, Sperm, 3 h): 81 µM | IC50 ([5]; 3 h): 58 µM

S=C(NCCC1=CCCCC1)Nc1ccc(Cl)cn1 [HI 445]
IC50 ([1]; 3 h exposure, MTT): 185 ± 21 µM | IC50 ([2]; 3 h exposure, MTT): 578 ± 25 µM | IC50 (HIV-1 strain HTLVIIIB; read-out: IC50 [p24]): 3 nM | IC50 (HIV-1 strain HTLVIIIB; read-out: IC50[p24]): 3 nM | Pa, Partition coefficient [3]: 6.3 | effective 100% inhibitory concentration (EC100), sperm motility (human sperm): 1 mM | EC50 (human sperm; [6]): 57 µM | IC50 ([5]; 3 h exposure, MTT): 692 ± 139 µM

S=C(NCCc1ccccc1Cl)Nc1ccc(Br)cn1 [HI 253]
IC50 ([1]; 3 h exposure, MTT): > 1000 µM | IC50 ([2]; 3 h exposure, MTT): > 1000 µM | IC50 (HIV-1 strain HTLVIIIB; [7]): < 1 nM | IC50 (HIV-1 strain HTLVIIIB; [8]): < 1 nM | Pa, Partition coefficient [3]: 1.04 | IC50 [4]: 0.7 µM | EC50 (human sperm; [6]): 70 µM | IC50 ([5]; 3 h exposure, MTT): > 1000 µM

S=C(NCCc1ccccn1)Nc1ccccn1 [HI 207]
IC50 ([1]; 3 h exposure, MTT): > 1000 µM | IC50 ([2]; 3 h exposure, MTT): > 1000 µM | IC50 (HIV-1 strain HTLVIIIB; [7]): 270 nM | Pa, Partition coefficient [3]: 2.32 | IC50 [4]: 0.39 µM | EC50 (human sperm; [6]): 279 µM | IC50 ([5]; 3 h exposure, MTT): > 1000 µM

Fc1ccccc1CCNC(=S)Nc1ccc(Br)cn1 [HI 240]
IC50 ([1]; 3 h exposure, MTT): > 1000 µM | IC50 ([2]; 3 h exposure, MTT): > 1000 µM | IC50 (HIV-1 strain HTLVIIIB; [7]): < 1 nM | IC50 (HIV-1 strain HTLVIIIB; [8]): < 1 nM | Pa, Partition coefficient [3]: 1.20 | IC50 [4]: 0.6 µM | EC50 (human sperm; [6]): 147 µM | IC50 ([5]; 3 h exposure, MTT): > 1000 µM

Source: US6774139B1, “Dual function microbicides” (Parker Hughes Institute, priority 2000, dated 2004)
